Results taken from PubChem BioAssay (NCI).
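Five compound concentrations were applied to cells in 96-well plates for 48 hours; endpoints were derived by simple linear interpolation of the resulting dose-response curve. GI50 = concentration required for 50% inhibition of growth. The concentration for full growth arrest is given as TGI.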

What was measured:
Test in all cases: NCI-60 cell line screen, 48 h
[1] = test system: 786-0 renal
[2] = test system: A498 renal
[3] = test system: A549 NSCLC
[4] = test system: ACHN renal
[5] = test system: BT-549 breast
[6] = test system: CAKI-1 renal
[7] = test system: CCRF-CEM leukemia
[8] = test system: COLO 205 colon
[9] = test system: DU-145 prostate
[10] = test system: EKVX NSCLC
[11] = test system: HCC-2998 colon
[12] = test system: HCT-116 colon
[13] = test system: HCT-15 colon
[14] = test system: HL-60(TB) leukemia
[15] = test system: HOP-62 NSCLC
[16] = test system: HOP-92 NSCLC
[17] = test system: HS 578T breast
[18] = test system: HT29 colon
[19] = test system: IGROV1 ovarian
[20] = test system: K-562 leukemia
[21] = test system: KM12 colon
[22] = test system: LOX IMVI melanoma
[23] = test system: M14 melanoma
[24] = test system: MALME-3M melanoma
[25] = test system: MCF7 breast
[26] = test system: MDA-MB-231 breast
[27] = test system: MDA-MB-435
[28] = test system: MDA-MB-468 breast
[29] = test system: MOLT-4 leukemia
[30] = test system: NCI-H226 lung

In the case of `O=c1[nH]c2ccccc2cc1CSc1ccc(Nc2nccc(-c3ccc(C(F)(F)F)cc3)n2)cc1`, the GI50 [1] is reported as 1.53 µM, the TGI [1] is reported as 3.29 µM and the GI50 [2] is reported as 1.93 µM. It also gave a TGI [2] of 3.84 µM, a GI50 [3] of 2.12 µM and a TGI [3] of 10.1 µM. The GI50 [4] was 1.85 µM, the TGI [4] was 10.8 µM and the GI50 [5] was 2.66 µM. It also gave a TGI [5] of 17.1 µM, a GI50 [6] of 1.66 µM and a TGI [6] of 7.13 µM. The GI50 [7] was 3.51 µM, the TGI [7] was over 100 µM and the GI50 [8] was 9.82 µM. The TGI [8] was 74.1 µM, the GI50 [9] was 13.2 µM and the TGI [9] was over 100 µM. For the same compound, the GI50 [10] was 3.5 µM, the TGI [10] was 40.5 µM and the GI50 [11] was 6.89 µM. The TGI [11] was over 100 µM, the GI50 [12] was 0.0885 µM and the TGI [12] was 11.6 µM. For the same compound, the GI50 [13] was 2.27 µM, the TGI [13] was 69.7 µM and the GI50 [14] was over 100 µM. It also gave a TGI [14] of over 100 µM, a GI50 [15] of 1.81 µM and a TGI [15] of 4.45 µM. For the same compound, the GI50 [16] was 2.32 µM, the TGI [16] was 15.2 µM and the GI50 [17] was 0.403 µM. The TGI [17] was 4.64 µM, the GI50 [18] was 3.46 µM and the TGI [18] was over 100 µM. It also gave a GI50 [19] of 17 µM, a TGI [19] of 43.6 µM and a GI50 [20] of 13.9 µM. For the same compound, the TGI [20] was over 100 µM, the GI50 [21] was 94.3 µM and the TGI [21] was over 100 µM. For the same compound, the GI50 [22] was 3.63 µM, the TGI [22] was 19.5 µM and the GI50 [23] was 16.8 µM. It also gave a TGI [23] of 61.3 µM, a GI50 [24] of 6.51 µM and a TGI [24] of 22.6 µM. It also gave a GI50 [25] of 4.55 µM, a TGI [25] of over 100 µM and a GI50 [26] of 1.66 µM. For the same compound, the TGI [26] was 9.04 µM, the GI50 [27] was 11.9 µM and the TGI [27] was 55.4 µM. It also gave a GI50 [28] of 3.33 µM, a TGI [28] of 18.2 µM and a GI50 [29] of 4.83 µM. For the same compound, the TGI [29] was over 100 µM and the GI50 [30] was 1.52 µM.
